Source: patent publication US20040048900A1, “Nicotine and/or nicotine agonists for the treatment of general anesthetic effects and side effects” (priority 2002, published 2004)
Several values for one entry are separate records, joined by “and”; a condition that tells them apart may be missing. Equal values may be shown once. Entries after “also recorded” stand apart in the source; their conditions may differ.

Assays:
[1] = system: β2 nicotinic knockout male C57/B16 mice; test: HPWL in β2 nicotinic knockout mice; assay type: in vivo; settings: vs wild type controls; 0.28% isoflurane, p<0.001
Excerpt: The subunit composition of the nicotinic receptors responsible for the analgesic effects of nicotinic agonists is controversial. […] Nicotinic antagonists specific for α7 containing nicotinic achetylcholine receptors can be analgesic in some settings (Damaj, 2000). […] The importance of the nicotinic β2 subunit in male C57/B16 mice and their generation matched wild type controls have been tested (a gift from J. P. Changeux, Institute Pasteur).

[2] = biological target: T1, human α4β2 nAChRs expressed in Xenopus oocytes (Homo sapiens, UniProt P17787+P43681); test: Two-microelectrode voltage clamp of ACh-activated currents in Xenopus oocytes; assay type: cell-based; settings: for IC50: 1 mM ACh, −60 mV, room temperature, read-out: IC50 for inhibition of α4β2 nAChR
T1 construct: expressed in transfected cells; host or cells: Xenopus laevis oocytes injected with cRNA (1:1 α4 to β2)
Method: The human α4 and β2 type nAChRs were in a pSP64 expression vector. Standard techniques were used to linearize the vectors and use them as templates to make cRNA using SP6 as the polymerase. The human nicotinic clones were a gift from Dr. Jon Lindstrom, Ph.D. (Department of Neuroscience, University of Pennsylvania, Philadelphia, Pa.).
Xenopus laevis oocytes were removed from the females and defolliculated with collagenase. After the oocytes rested for 24 hours in L-15 oocyte medium, about 10 ng of a 1:1 ratio of α4 to β2 cRNA were injected into individual oocytes. A manual injector was used for this process (Nanoject; Drummond Scientific, Broomall, Pa.). The oocytes were incubated for 2-5 days in ND-96 medium (NaCl 96 mM, KCl 2 mM, MgCl2 1 mM, CaCl2 H2O 1.8 mM, HEPES 5 mM, Na-pyruvate 2.5 mM, theophylline 0.5 mM, and 10mg/L of gentamicin, adjusted to pH 7.5).
Whole oocytes were used to record currents using a Gene-Clamp 500 two-microelectrode voltage-clamp amplifier with an active ground (Axon Instruments, Inc., Foster, Cailf.). The recording electrodes were pulled from glass capillary tubing (Drummond, Broomall, Pa.) to obtain a resistance between 1 and 5 MΩ and filled with 3M KCl. Ba^2 Ringer's solution was used as the extracellular solution in order to avoid current amplification by calcium activated chloride currents (115 mM NaCl, 2.5 mM KCl, 1.8 mM BaCl2, 10 mM HEPES, 1 μM atropine, pH 7.4). Atropine was included to avoid activation of intrinsic muscarinic receptors. Experiments were performed at room temperature. Isoflurane was prepared from a saturated solution by serial dilution. Concentrations were verified by gas chromatography.
Oocytes were tested at a membrane potential of −60 mV. Bolus application of the agonist +/− indicated antagonist(s) was applied at a rate of 4 ml/min for a 2 second application.
Antagonists were pre-applied for 2 minutes prior to activation. Concentration response curves were made from the percent change in peak current from ACh activation in the presence of antagonist(s), compared to ACh alone. As the ACh concentration at central neuronal nAChRs is unknown, 1 mM ACh (saturating) was used to detect inhibition by isoflurane and mecamylamine experiments with mecamylamine. ACh 2 μM was used to detect potentiation by nicotine. Currents were measured in 5-8 cells for each data point. Clampex 7 (Axon instruments, Foster City, Calif.) was used for data acquisition.
Microcal Origins 5.0 (Microcal, Northampton, Mass.) was used for statistical calculations and graphical presentation. The in vitro data were fit to a modified Hill equation, y=100/(1+(x/IC50)^n), where IC50 is the concentration of drug at which of 50% of the response is inhibited and n is the Hill coefficient.

[3] = system: ^3H-norepinephrine release from female mouse lumbar spinal cord slice; test: 3H-norepinephrine release from superfused spinal cord slice
Excerpt: Spinal Cord Slice Preparation: The spinal cord was dissected from the mouse. Under CO2 narcosis the mouse was decapitated. The spinal column was removed and placed into cold dissection solution where the spinal cord was removed with a dissection microscope. The lumbar section of the cord was isolated and imbedded in a 3% low melting point agar (Fisher Scientific) block made in dissection solution. Transverse 400 micrometer slices were made using a Vibratone VT1000S slicing apparatus (Leica, Whetzlar, Germany). Slicing was performed in ice cold Krebs solution bubbled with 5%CO2/95%O2.
The cord slices were incubated in a solution of 1 ml of Krebs solution and 10 ul of 1-[7,8-^3H] noradrenaline in a closed environment surrounded by Krebs solution bubbled with CO2/O2 for 30 minutes. The slices were transferred into a superfusion and stimulation chamber (Warner Instruments Inc.,) where Krebs solution was allowed to perfuse over them for 30 minutes at a rate of 0.5 ml/min. The superfusion chamber thermostatically temperature controlled at 37° C. The solutions were pumped to the chamber at a constant rate of 0.5 ml/min using a Kwik-Pump 290 (Long). Following a 30 minute period for equilibration, collections were taken every 1-2.5 minutes. Ecolite scintillation fluid (15 ml) was then added to each collection vial. The samples were analyzed for radioactivity (CPM) using a Packard TRI CARB 2100 TR scintillation counter (Meriden, Conn.).
Dissection Krebs Solution (mM) NaCl 125, KCl 2.5, NaHCO3 26, NaH2PO4-H2O1.25, MgCl2 6,CaCl2 1.5, glucose 2.5. Perfusion Krebs Solution (mM) NaCl 125, KCl 2.5, NaHCO3 26, NaH2PO4—H2O 1.25, MgCl2 1,CaCl2 2, glucose 2.5.
After incubation with ^3H-norepinephrine, the cord slices were perfused with buffer for 30 minutes at 0.5 ml/minute. After equilibration, samples containing released ^3H-norepinephrine were collected at 2.5 minute intervals. After determination of baseline release, the slices were stimulated with 1 mM nicotine in the perfusion buffer.

mice [4] = system: mice
Excerpt: Nicotinic acetylcholine receptors are involved in the mechanism of isoflurane hyperalgesia, and nicotinic inhibition could be the initiating event.
How could nicotinic inhibition cause hyperalgesia? Nicotine is thought to exert its analgesic action by increasing the release of norepinephrine, serotonin and acetylcholine onto the relay neurons in the dorsal horn of the spinal cord (Rao, 1996; and Reuter, 2000). Isoflurane might reduce pain threshold by inhibiting nicotinic acetylcholine receptors tonically active in potentiating the release of norepinephrine, serotonin and/or acetylcholine. To test the role of the α-adrenergic system, mice were treated systemically with the adrenergic neurotoxin DSP-4 to deplete norepinephrine levels (Jonsson, 1981). The DSP-4 mice 14 days after treatment were tested for HPWL in the presence of isoflurane alone or isoflurane with nicotine pretreatment (see methods).
To test the role of muscarinic receptors for acetylcholine, mice were treated with the nonspecific muscarinic antagonist, atropine. A cholinergic neurotoxin could not be used for these studies, because removing all cholinergic neurons would have nicotinic in addition to muscarinic effects. Instead, postsynaptic muscarinic blockade was used. ACh causes analgesia, at least in part due to muscarinic stimulation (Chiari, 1999; Smith, 1989; and Lavand'homme, 1999). […] High concentrations of atropine can block nicotinic acetylcholine receptors as well (Zwart, 1997).

female mice = test: MAC and LORR of isoflurane; assay type: in vivo
Excerpt: Isoflurane causes hyperalgesia in female mice. […] Increased HPWL occurred at concentrations above 0.86% that were associated with sedation. MAC in these animals was 1.5±0.1% and LORR (mean partial pressures bracketing postural response and lack of response to placing the animal in a supine position) occurred at 0.59 +0.2% isoflurane.
5-28 mice were studied per group.

male and female mice = test: HPWL by gender, estrus stage, castration, oophorectomy; assay type: in vivo; settings: isoflurane
Method: The ovary and oviduct was tied with a double 3.0 polysorb suture. The fascia was closed with 3.0 polysorb and the skin with 4.0 nylon. The procedure was repeated on the other side. The mouse was injected with buprenophine 1 mg/kg prior to emergence for pain control.
Estrogen can directly modulate nicotinic receptors at micromolar concentrations (Paradiso, 2001; Nakazawa, 2001; and Damaj, 2001). Estrogen receptors are co-localized with both nicotinic and muscarinic receptors (Hosli, 2001). Progesterone is inhibitory at nicotinic acetylcholine receptors (Paradiso, 2001; and Damaj, 2001). HPWL was tested at different phases of the female estrus cycle (FIG. 14). […] Oophorectomy (see methods) was performed on six week old female mice. After allowing two weeks for hormonal depletion, and surgical recovery HPWL was again tested.
Furthermore, testosterone was tested to see if it induced a state resistant to isoflurane hyperalgesia. Male mice were castrated and after two weeks for surgical recovery and hormone depletion, hyperalgesia in response to isoflurane was tested. […] In addition to the classical “female hormones”, female mice also have testosterone that is made by the ovary (Halling, 1989). […] Testosterone levels in females decrease after oophorectomy.

[5] = Qian, 1993; Badio, 1994; cited from earlier work
[6] = system: analgesic action of nicotine; settings: Bitner, 1998; cited from earlier work
seizures induced by NMDA = settings: McDonough, 1995; cited from earlier work
NMDA = settings: O'Dell, 1988; Papke, 2001; cited from earlier work
in vivo = settings: female, mouse, plasma, 5 mg/kg
Method: (§1) The duration of mecamylamine's action was tested with two control experiments. First, 5 mice were injected with mecamylamine 5 mg/kg IP or saline. These mice were then tested at 1-hour intervals with nicotine 1 mg/kg IP. […] Mecamylamine plasma concentration was measured in 5 female mice, 1 hour after I.P. injection using a combination of Gas Chromatography and Mass Spectroscopy described by Jacob et al. (Jacob, 2000).

mice [7] = test: Nicotine-induced prostration, duration of mecamylamine blockade
Method: as §1

non-smoking volunteers = settings: cited from earlier work
[8] = system: women having pelvic surgery
Method: In a double blind, randomized trial of women having pelvic surgery with an isoflurane anesthetic, either nicotine (nasal spray, 3 mg) or saline placebo was administered just prior to emergence from anesthesia. Postoperative pain was assessed using the visual analog scale (VAS). In the VAS, patients are asked how much pain they have on a scale from 0-10 where 0 is no pain and 10 is the worst pain imaginable. All patients had access to essentially unlimited morphine in a PCA pump as is routine after this type of surgery.

[9] = nicotine 1 mg/kg, Thompson, 1982, cited from earlier work
[10] = 3 mg intranasally, Fishbein, 2000
[11] = 3 mg intranasally, Guthrie, 1999

T1 sequence (P43681 29-627 limits assumed): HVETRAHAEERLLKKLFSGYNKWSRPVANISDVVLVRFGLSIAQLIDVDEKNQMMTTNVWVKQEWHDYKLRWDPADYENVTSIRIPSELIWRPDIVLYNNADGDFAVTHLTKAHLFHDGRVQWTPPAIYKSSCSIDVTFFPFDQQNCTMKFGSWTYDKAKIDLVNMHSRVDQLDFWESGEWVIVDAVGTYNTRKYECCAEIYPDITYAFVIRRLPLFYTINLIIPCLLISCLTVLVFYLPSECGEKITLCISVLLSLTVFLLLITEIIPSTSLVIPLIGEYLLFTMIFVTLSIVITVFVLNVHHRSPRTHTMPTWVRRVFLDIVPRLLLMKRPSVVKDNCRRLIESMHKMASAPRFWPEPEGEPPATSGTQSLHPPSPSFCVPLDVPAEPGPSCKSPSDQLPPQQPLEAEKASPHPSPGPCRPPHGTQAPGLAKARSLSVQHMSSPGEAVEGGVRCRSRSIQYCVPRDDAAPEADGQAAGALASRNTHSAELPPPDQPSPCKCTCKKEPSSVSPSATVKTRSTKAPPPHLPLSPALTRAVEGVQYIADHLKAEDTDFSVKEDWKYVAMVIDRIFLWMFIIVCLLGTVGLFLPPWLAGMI
T1 sequence (P17787 26-502): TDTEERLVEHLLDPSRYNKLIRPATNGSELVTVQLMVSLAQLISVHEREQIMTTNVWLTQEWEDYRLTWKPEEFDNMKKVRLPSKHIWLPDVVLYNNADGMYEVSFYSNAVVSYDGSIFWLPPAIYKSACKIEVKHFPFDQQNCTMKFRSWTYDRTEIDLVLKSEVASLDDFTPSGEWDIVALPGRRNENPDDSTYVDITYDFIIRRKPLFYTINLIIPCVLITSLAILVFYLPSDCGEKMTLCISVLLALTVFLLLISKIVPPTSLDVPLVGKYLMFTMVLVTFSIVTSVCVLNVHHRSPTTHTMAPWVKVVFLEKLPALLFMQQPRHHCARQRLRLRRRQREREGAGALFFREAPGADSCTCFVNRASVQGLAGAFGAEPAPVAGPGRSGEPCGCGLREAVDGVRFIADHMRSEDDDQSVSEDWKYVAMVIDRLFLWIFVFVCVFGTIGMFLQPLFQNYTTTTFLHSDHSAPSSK

FC(F)OC(Cl)C(F)(F)F (centres unmarked) [isoflurane]
hyperalgesic effect of isoflurane in β2 nicotinic knockout mice [1]: clearly reduced in these animals, but not absent; also recorded: Hyperalgesia was reduced
mode of antagonism at heteromeric nAChRs [2]: non-competitive antagonists
IC50 [2]: 44 µM
basal norepinephrine release ([3]; isoflurane 0.38%): basal norepinephrine release was reduced
nicotine facilitated norepinephrine release ([3]; isoflurane 0.38%, 1 mM nicotine): no facilitation by nicotine
hyperalgesic effect after norepinephrine depletion (mice [4]; isoflurane, mice 14 days after DSP-4): no hyperalgesic effect at any subanesthetic concentration
isoflurane concentration that caused maximal hyperalgesia (mice [4]; mouse, in vivo): 0.38%
MAC (female mice; isoflurane in these mice): 1.4% and 1.5±0.1%
LORR (female mice; mean partial pressures bracketing postural response and lack of response to supine placement): 0.59 +0.2%
hyperalgesic response after oophorectomy (male and female mice; female mice two weeks after oophorectomy): more pronounced
hyperalgesic effect by estrus stage (male and female mice; high estrogen (stages 2 and 3) and high progesterone (stage 5)): less hyperalgesic effect during these stages
hyperalgesic response in male mice (male and female mice; intact males): less than that in females
hyperalgesic response in castrated males (male and female mice; two weeks after castration): increased hyperalgesic responses to isoflurane compared to intact males

Clc1ccc(C2CC3CCC2N3)cn1 (centres unmarked) [Epibatidine]
potency for analgesia relative to morphine [5]: approximately 200 times

C[N+](C)(C)CCCCCC[N+](C)(C)C [Hexamethonium]
effect on the analgesic action of nicotine [6]: has no effect on the analgesic action of nicotine

CNC1(C)C2CCC(C2)C1(C)C (centres unmarked) [mecamylamine]
ED50 for inhibition of seizures induced by NMDA (seizures induced by NMDA): 12 ± 3.2 mg/kg
concentration range with NMDA antagonist properties (NMDA): ~100 µM
concentration at 1 h (in vivo; intraperitoneal): 200 ± 70 nM
concentration at 1 h (in vivo; ip): 203 nM
mode of antagonism at heteromeric nAChRs [2]: non-competitive antagonists
IC50 [2]: 0.29 ± 0.05 µM
interaction of mecamylamine and isoflurane applied together (isobolographic analysis) ([2]; inhibition of α4β2 nAChR activation): within the 95% confidence intervals for additivity
duration of blockade of prostration from nicotine 1 mg/kg IP (mice [7]; mecamylamine 5 mg/kg IP, tested at 1-hour intervals): up to 4 hours

CN1CCC[C@H]1c1cccnc1 [nicotine, (s)-(−)-nicotine]
average increase in systolic blood pressure (non-smoking volunteers; [10]): 7 mM of mercury
diastolic blood pressure or heart rate (non-smoking volunteers; [10]): no change
arterial peak concentration (non-smoking volunteers; [11]): 100 µM
steady state venous concentration (non-smoking volunteers; [11]): 30 µM
time of peak effect (non-smoking volunteers; intranasal nicotine): peak effect in five minutes
time until effect is dissipated (non-smoking volunteers; intranasal nicotine): dissipated in about one hour
ill effects ([8]; nicotine nasal spray 3 mg): no severe ill effects
postoperative pain, VAS scores ([8]; nicotine nasal spray 3 mg prior to emergence vs saline placebo): significantly lower VAS scores
heart rate ([8]; nicotine nasal spray 3 mg vs placebo): higher heart rates
morphine used in the first hour (PCA pump) ([8]; nicotine nasal spray 3 mg, placebo 12 mg): 4 mg
blood pressures ([8]; with or without nicotine): not different
current relative to ACh 2 μM alone in presence of isoflurane ([2]; ACh 2 μM nicotine 2 μM, given concentration of isoflurane): always larger
current relative to ACh alone ([2]; nicotine 2 μM added to ACh 2 μM): produces a larger current than ACh alone
release of ^3H-norepinephrine ([3]; 1 mM nicotine in perfusion buffer, p<0.02): caused an increase in the release of ^3H-norepinephrine
analgesia by ICV nicotine (mice [4]; mouse, in vivo): caused significant analgesia both in the presence and absence of isoflurane
effect of ICV nicotine on isoflurane hyperalgesia (mice [4]; mouse, in vivo): did not prevent hyperalgesia with isoflurane
protection against isoflurane hyperalgesia in presence of atropine (mice [4]; nicotine 1 mg/kg, atropine 5 mg/kg): remained protective against the hyperalgesia
effect on HPWL in DSP-4 treated mice (mice [4]; nicotine pretreatment, baseline or isoflurane): without effect
time until mice lay prone (mice [7]; nicotine 1 mg/kg IP, mice not pretreated with mecamylamine): ≤ 5 min
detectability by HPLC at 40 minutes [9]: undetectable by HPLC at 40 minutes
peak concentration ([9]; at 5 minutes): approximately 2 μM
